“And” between values parts separate entries of the source, which are not always exact repeats. Equal entries are not always repeated. Where two headings read alike, the source gives them in different places.
How the values were obtained:
Fyn-YEEI = Fyn-YEEI (Homo sapiens, UniProt P06241); experiment: Km determination, ADP Quest assay, Fyn-YEEI; assay type: biochemical; conditions: pH 7.4, 25°C, 150 ng/well kinase, mean ±S.E.
Lyn-YEEI = Lyn-YEEI (Homo sapiens, UniProt P07948, Q509E/Q510E/Q511I); experiment: Km determination, ADP Quest assay, Lyn-YEEI; assay type: biochemical; conditions: pH 7.4, 25°C, 250 ng/well kinase, mean ±S.E.
Lyn-YEEI, sequence (P07948 63-512 Q509E/Q510E/Q511I limits assumed): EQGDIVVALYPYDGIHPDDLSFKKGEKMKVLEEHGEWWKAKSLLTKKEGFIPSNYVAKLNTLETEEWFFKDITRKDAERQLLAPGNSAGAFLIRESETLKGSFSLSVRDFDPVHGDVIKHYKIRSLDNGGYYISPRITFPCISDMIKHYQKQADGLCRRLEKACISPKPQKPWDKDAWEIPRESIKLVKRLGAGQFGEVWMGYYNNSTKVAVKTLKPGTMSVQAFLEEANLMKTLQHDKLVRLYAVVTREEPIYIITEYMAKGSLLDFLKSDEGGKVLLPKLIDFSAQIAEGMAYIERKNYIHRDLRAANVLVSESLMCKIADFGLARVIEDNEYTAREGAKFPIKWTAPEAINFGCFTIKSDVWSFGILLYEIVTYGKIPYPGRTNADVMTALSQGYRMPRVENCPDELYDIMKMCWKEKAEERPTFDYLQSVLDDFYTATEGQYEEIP

Hck-YEEI = Hck-YEEI (Homo sapiens, UniProt P08631, Q523E/Q524E/Q525I); experiment: Km determination, ADP Quest assay, Hck-YEEI; assay type: biochemical; conditions: pH 7.4, 25°C, 150 ng/well kinase, mean ±S.E.
Hck-YEEI, sequence (P08631 78-526 Q523E/Q524E/Q525I limits assumed): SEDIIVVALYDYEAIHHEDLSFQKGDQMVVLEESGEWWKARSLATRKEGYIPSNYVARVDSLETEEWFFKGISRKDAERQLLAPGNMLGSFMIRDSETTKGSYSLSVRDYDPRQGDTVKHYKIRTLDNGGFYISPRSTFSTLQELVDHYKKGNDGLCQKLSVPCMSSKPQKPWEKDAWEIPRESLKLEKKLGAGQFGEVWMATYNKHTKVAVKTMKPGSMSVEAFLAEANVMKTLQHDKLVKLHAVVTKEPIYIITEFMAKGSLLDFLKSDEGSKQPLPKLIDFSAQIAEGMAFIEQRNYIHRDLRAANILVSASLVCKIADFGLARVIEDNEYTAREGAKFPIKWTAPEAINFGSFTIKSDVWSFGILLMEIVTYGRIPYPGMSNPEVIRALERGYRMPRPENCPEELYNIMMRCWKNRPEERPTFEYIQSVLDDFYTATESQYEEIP

Lyn SH3 domain = Lyn SH3 domain (Homo sapiens, UniProt P07948); experiment: SPR, VSL12 binding to Lyn SH3; conditions: biotinylated VSL12 on SA chip, 25°C, duplicate runs
Lyn SH3 domain, sequence (P07948 63-123 limits assumed): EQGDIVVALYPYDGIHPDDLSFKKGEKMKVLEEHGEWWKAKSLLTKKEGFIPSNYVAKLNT
Experimental: The biotinylated peptide was immobilized to 80 Response Units (RU) on the surface of a streptavidin (SA) biosensor chip. The recombinant purified Src SH3 domain proteins were flowed past the peptide over the concentration ranges shown. Association was measured for 180 s, followed by a 300 s dissociation phase.
The C-terminus of each construct was modified by the addition of the sequence […] as encoded by the XhoI site and the His6 tag in the vector. For expression of the SH3 and SH2 domains, E. coli strain Rosetta 2(DE3)pLysS (EMD Millipore) was transformed with each plasmid and cultures were grown at 37°C until the OD600 reached 0.8–1.0. Protein expression was induced with 0.4 mM isopropyl -D-thiogalactopyranoside (IPTG) for 4 h at 25°C. The isolated KDs were expressed as previously described by Seeliger, et al. For purification, cell pellets were resuspended in ion-exchange start buffer (20 mM Tris-HCl, pH 8.5, 5 mM -mercaptoethanol, 10% glycerol), sonicated, and clarified by centrifugation. […] Recombinant purified protein concentrations were quantified by Bradford assay using the BioRad Protein Assay Dye Reagent Concentrate and purified BSA as a reference standard (Pierce).
SPR experiments were performed using a Biacore 3000 Instrument (GE Healthcare) on a streptavidin (SA) biosensor chip. […] Association was measured for 180 s, followed by 300 s of dissociation in HBS-EP running buffer. […]

Src-YEEI = Src-YEEI (Homo sapiens, UniProt P12931); assay type: biochemical; conditions: pH 7.4; read-out: Km YIYGSFK
[1] = peptide substrate at Km, n = 3, read-out: Km ATP
[2] = ATP held constant at 200 (µM), n = 4, read-out: Km YIYGSFK

Fyn-YEEI, sequence (P06241 with tags, fused parts or gaps): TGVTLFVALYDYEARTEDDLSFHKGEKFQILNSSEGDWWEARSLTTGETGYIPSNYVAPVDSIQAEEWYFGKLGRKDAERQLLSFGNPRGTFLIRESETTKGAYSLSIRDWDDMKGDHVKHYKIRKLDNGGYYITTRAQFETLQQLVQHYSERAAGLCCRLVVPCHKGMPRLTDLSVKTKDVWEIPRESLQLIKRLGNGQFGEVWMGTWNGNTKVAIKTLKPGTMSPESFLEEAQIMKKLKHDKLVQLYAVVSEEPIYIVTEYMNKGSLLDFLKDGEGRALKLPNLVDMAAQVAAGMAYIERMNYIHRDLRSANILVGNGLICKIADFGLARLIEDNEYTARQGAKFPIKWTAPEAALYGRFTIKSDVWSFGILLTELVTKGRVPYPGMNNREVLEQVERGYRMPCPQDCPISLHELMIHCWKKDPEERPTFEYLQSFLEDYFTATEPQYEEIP

Compound: Nc1ncnc2c1ncn2[C@@H]1O[C@H](COP(=O)(O)OP(=O)(O)OP(=O)(O)O)[C@@H](O)[C@H]1O [ATP]
- Km (Fyn-YEEI; [1]): 49.7 ± 8.2 µM
- Km (Lyn-YEEI; [1]): 31.1 ± 9.7 µM
- Km (Hck-YEEI; [1]): 55.8 ± 18.5 µM

Compound: CC(C)C[C@H](NC(=O)[C@H](CO)NC(=O)[C@@H](N)C(C)C)C(=O)N[C@@H](C)C(=O)N[C@@H](CCCN=C(N)N)C(=O)N[C@@H](CCCN=C(N)N)C(=O)N1CCC[C@H]1C(=O)N[C@@H](CC(C)C)C(=O)N1CCC[C@H]1C(=O)N1CCC[C@H]1C(=O)N[C@@H](CC(C)C)C(=O)N1CCC[C@H]1C(=O)O [VSL12]
- Kd (Lyn SH3 domain; 31.25-250 nM SH3, 1:1 Langmuir fit, χ^2 1.850, read-out: Kinetic KD): 0.647 µM
- Kd (Lyn SH3 domain; 31.25-250 nM SH3, steady state model, χ^2 0.225, read-out: Steady-State KD): 0.562 µM

Compound: YIYGSFK [SFK substrate peptide; Anaspec]
- Km (Fyn-YEEI; [2]): 70 µM and 69.6 µM
- Km (Src-YEEI): 159 µM
- Km (Lyn-YEEI; [2]): 83.2 ± 4.9 µM
- Km (Hck-YEEI; [2]): 83.8 ± 12.5 µM

From PMC4140816, “Differential Sensitivity of Src-Family Kinases to Activation by SH3 Domain Displacement” (PLoS ONE, 2014)
